Patent publication US20230321067A1, “DOSING REGIMEN COMPRISING 3-(1-OXOISOINDOLIN-2-YL)PIPERIDINE-2,6-DIONE DERIVATIVES” (Novartis AG, priority 2020, published 2023)
Where two headings read alike, the source gives them in different places.

Key:
IKZF1 (Ikaros) = molecular target: T1, IKZF1 (Ikaros) (Homo sapiens, UniProt Q13422); assay: IKZF1 degradation in vitro (FIG. 1); type: cell-based
T1 construct: ProLabel; expressed in transfected cells; host or cells: HEK293T
Text: Although the specific transcriptional targets of IKZF2 remain to be defined, IKZF2 binds to and represses transcription from the IL-2 promoter region (Baine 2013). […] Finally, an in vitro assay recapitulating hallmarks of T cell dysfunction/exhaustion, by sequential TCR stimulation of isolated primary human T cells, was used to test the hypothesis that […] would rescue the exhausted phenotype and enhance Teff cell activity. […] In addition to IKZF1, other known cereblon substrates including translation termination factor G1 to S phase transition 1 (GSPT1) are not degraded by I-57 (FIG. 1).

[1] = Single oral dose PK in cynomolgus monkey; type: in vivo; conditions: for Cmax / AUC(0-t): plasma; for Cmax / AUC(0-t) / AUC24 h/Dose / Cmax/Dose: unbound, n = 3, mean ± SD; for AUC(0-t): read-out: AUC24 h
Description: The PK/PD relationship of I-57 was examined in cynomolgus monkeys after a single oral dose of 0.01, 0.1 or 1 mg/kg. I-57 plasma concentration and IKZF2 expression (as determined by flow cytometry) in FOXP3+ T cells from PBMCs were determined (FIG. 4 and FIG. 5).

IKZF2 [2] = assay: Repeated daily oral dose PD in cynomolgus monkey: IKZF2 in FOXP3+ T cells by flow cytometry; type: in vivo
Description: The PK/PD relationship of I-57 was further examined in cynomolgus monkeys after repeated daily oral doses of 0.1 and 3 mg/kg. In this study, a cohort of animals were initially immunized with an antigen-adjuvant mixture (KLH/Squalene). The experiment was designed to assess the effect of I-57 exposure, and the resulting IKZF2 degradation, on immune response during immunization to test the hypothesis that IKZF2 degradation would result in increased proliferation of stimulated T-cells. In the experiment, daily I-57 oral treatment was initiated 5 days after immunization. An immunization booster dose was administered on day 15. I-57 plasma concentration and IKZF2 expression (as determined by flow cytometry) in FOXP3+ T cells from PBMCs were determined (FIG. 9A and FIG. 9B).
Consistent with previous findings, IKZF2 degradation was detected 24 h after the first dose (at day 6) (FIG. 9A and FIG. 9B). The levels of IKZF2 decreased further upon repeat dosing and reached a steady-state level approximately 72 h after initiation of treatment. This level of degradation was maintained throughout the remainder of the treatment (24 days).

[3] = In vivo non-clinical PK, rat
Description: The in vivo non-clinical PK profile of I-57 was investigated in mouse, rat, dog and cynomolgus monkey using I-57 free base. […] After p.o. administration, the absorption of I-57 was rapid with peak blood concentration (Tmax) occurring between 1 and 4 hours. […] In high dose PK and toxicology studies with I-57 the exposures in mouse, rat and monkey increased with dose.

plasma protein [4] = assay: Plasma protein binding in vitro, mouse; type: in vitro ADME
Text: (§1) The binding to plasma protein of I-57 in vitro was moderate in all species, with an observed difference between rodents (73% in mouse, 76% in rat) and non-rodents (52% in dog and monkey, 54% in human). Blood-to-plasma ratios were in the range of 0.7-1.8 (human 1.1-1.3). […] Based on results with non-radiolabeled I-57 in the dog, a significant amount of unchanged I-57 was renally eliminated (˜20% of dose).

plasma protein [5] = assay: Plasma protein binding in vitro, monkey; type: in vitro ADME
Text: as §1

CYP2C9 = CYP2C9 (Homo sapiens, UniProt P11712); assay: CYP inhibition: CYP2C9; type: in vitro ADME; conditions: I-57 concentrations of up to 100 μM
CYP2C9, sequence (P11712 whole entry): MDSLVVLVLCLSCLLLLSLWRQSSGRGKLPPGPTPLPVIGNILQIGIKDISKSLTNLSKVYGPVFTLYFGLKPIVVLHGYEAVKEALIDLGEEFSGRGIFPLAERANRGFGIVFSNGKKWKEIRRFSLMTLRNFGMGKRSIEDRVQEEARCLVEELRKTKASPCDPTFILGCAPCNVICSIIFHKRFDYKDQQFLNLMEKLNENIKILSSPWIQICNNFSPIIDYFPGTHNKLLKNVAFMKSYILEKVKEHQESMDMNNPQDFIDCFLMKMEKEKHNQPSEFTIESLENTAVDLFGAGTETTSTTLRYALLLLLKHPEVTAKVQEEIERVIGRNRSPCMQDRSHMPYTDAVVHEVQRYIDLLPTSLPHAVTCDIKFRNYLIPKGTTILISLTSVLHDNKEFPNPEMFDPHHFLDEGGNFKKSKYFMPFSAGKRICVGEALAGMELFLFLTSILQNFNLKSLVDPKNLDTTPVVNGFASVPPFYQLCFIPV

CYP1A2 = CYP1A2 (Homo sapiens, UniProt P05177); assay: Time-dependent CYP inhibition: CYP1A2; type: in vitro ADME; conditions: I-57 concentrations of up to 100 μM
CYP1A2, sequence (P05177 whole entry): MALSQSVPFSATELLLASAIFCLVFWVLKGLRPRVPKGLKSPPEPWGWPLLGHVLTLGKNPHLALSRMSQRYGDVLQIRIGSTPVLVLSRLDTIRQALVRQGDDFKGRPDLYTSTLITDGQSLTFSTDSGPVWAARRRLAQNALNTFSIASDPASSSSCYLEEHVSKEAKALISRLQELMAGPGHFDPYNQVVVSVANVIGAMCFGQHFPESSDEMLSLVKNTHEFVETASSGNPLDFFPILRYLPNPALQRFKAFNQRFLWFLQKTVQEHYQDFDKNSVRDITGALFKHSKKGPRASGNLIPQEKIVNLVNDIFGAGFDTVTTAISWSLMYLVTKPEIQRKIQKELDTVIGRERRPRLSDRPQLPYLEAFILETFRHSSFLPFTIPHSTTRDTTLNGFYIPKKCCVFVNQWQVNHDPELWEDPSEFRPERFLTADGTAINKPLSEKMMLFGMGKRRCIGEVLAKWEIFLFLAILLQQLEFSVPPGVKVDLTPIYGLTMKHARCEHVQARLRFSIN

CYP2B6 = CYP2B6 (Homo sapiens, UniProt P20813); assay: Time-dependent CYP inhibition: CYP2B6; type: in vitro ADME; conditions: I-57 concentrations of up to 100 μM
CYP2B6, sequence (P20813 whole entry): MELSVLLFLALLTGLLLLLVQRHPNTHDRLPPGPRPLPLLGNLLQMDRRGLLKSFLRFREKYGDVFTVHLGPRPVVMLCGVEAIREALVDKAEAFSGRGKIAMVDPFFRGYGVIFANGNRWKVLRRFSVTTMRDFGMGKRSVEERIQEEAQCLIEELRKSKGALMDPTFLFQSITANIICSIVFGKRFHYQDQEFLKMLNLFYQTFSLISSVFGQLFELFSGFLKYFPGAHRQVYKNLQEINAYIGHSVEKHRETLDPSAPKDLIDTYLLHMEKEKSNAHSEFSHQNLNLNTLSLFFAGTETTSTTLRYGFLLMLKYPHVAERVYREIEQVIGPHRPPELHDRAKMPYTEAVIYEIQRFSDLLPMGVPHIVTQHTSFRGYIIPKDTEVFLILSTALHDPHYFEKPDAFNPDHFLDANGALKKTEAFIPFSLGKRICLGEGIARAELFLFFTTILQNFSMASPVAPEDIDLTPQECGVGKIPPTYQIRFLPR

IKZF2 [6] = molecular target: IKZF2 (Homo sapiens, UniProt Q96SW2+Q9UKS7); assay: IKZF2 in human Tregs (tumor, blood) by flow cytometry, hPBMC AdT model; type: in vivo, NSG mice with human PBMCs; design: endogenous in cells; host or cells: human lymphocytes (CD4+FOXP3+ Tregs; total tumor-infiltrating lymphocytes) from healthy-donor PBMC transferred into NSG mice
IKZF2 (Homo sapiens, UniProt Q96SW2+Q9UKS7), sequence (Q9UKS7 whole entry): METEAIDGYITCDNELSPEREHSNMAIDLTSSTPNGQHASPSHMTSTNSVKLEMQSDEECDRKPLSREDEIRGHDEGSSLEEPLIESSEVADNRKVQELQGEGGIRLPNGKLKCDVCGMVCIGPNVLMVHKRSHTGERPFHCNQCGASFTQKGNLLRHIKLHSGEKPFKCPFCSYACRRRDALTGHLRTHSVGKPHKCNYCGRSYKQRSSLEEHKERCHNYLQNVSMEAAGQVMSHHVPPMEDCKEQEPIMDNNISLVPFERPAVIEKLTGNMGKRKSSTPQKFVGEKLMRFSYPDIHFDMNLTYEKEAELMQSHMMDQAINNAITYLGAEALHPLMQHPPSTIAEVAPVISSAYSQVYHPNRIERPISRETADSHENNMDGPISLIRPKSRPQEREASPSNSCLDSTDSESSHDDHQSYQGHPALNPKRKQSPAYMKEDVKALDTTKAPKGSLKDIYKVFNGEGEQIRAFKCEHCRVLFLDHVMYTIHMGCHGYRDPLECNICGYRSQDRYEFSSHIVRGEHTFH
IKZF2 (Homo sapiens, UniProt Q96SW2+Q9UKS7), sequence (Q96SW2 whole entry): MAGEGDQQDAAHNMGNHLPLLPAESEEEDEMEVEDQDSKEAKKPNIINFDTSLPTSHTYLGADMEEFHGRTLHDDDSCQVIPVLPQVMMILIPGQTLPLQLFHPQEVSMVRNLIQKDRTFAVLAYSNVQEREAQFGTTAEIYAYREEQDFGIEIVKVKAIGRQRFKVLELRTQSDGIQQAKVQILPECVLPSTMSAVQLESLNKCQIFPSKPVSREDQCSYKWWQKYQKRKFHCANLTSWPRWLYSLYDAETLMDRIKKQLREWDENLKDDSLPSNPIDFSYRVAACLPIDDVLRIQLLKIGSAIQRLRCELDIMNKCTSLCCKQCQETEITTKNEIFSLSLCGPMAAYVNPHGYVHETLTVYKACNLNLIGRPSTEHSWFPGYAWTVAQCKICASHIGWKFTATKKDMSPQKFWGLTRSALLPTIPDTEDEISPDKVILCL
IKZF2 (Homo sapiens, UniProt Q96SW2+Q9UKS7), sequence (Q16531 whole entry partner): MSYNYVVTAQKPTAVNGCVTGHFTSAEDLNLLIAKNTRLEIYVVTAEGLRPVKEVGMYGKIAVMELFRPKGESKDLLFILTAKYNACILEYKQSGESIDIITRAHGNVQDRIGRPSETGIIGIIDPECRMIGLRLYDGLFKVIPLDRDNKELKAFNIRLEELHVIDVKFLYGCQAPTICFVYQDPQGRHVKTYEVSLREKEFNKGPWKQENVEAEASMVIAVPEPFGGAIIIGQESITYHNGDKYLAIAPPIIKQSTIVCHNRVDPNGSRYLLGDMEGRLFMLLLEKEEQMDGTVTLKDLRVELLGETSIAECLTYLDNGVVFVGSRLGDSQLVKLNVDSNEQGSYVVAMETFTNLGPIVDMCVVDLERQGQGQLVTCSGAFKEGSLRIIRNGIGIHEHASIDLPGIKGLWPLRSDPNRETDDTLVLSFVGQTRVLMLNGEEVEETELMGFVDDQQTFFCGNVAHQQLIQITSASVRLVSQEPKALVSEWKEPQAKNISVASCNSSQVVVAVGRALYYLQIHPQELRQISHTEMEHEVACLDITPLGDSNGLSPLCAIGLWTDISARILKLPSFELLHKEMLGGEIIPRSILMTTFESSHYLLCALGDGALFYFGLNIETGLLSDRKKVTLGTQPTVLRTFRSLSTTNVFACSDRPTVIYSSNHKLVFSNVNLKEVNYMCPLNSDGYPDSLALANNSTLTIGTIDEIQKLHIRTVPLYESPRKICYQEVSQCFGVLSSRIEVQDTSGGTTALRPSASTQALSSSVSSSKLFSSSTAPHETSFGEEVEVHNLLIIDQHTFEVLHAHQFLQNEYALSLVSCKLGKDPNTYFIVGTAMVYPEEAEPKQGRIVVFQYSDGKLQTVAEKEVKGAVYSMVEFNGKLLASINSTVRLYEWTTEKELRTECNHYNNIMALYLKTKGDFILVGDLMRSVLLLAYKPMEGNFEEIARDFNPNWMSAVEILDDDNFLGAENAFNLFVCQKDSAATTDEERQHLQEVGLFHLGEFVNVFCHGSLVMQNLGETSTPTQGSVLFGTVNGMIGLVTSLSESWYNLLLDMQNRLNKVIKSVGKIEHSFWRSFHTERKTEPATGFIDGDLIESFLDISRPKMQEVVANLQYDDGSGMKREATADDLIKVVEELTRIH
Description: The PK/PD relationship of I-57 was examined in the hPBMC AdT model system. Human PBMCs were adoptively transferred into female NSG mice harboring established MDA-MB231 xenografts (FIG. 6). This model was selected based on the observation that IKZF2 positive Tregs (CD4+FOXP3+) were readily identifiable in peripheral blood and infiltrated in the tumor xenografts.
The impact of I-57 on IKZF2 protein expression in human Tregs in the periphery and infiltrated in MDA-MB231 xenografts was assessed via flow cytometry at multiple time points after the last I-57 dose. […] Maximum effects were generally observed 4-16 h post dose. At a given dose level, the magnitude and duration of IKZF2 reduction in Tregs was generally consistent across tissues (tumor, spleen and blood).
Based on the data from this hPBMC AdT mouse model, unbound I-57 (73% percent plasma binding in the mouse) exposures (AUCinf) of 7, 30, 157 and 3474 ng*h/mL are required to achieve the reduction of IKZF2 positivity (via flow cytometry) in tumor Tregs by 31, 43, 56, and 75%, respectively. The relationship between the magnitude and duration of I-57-mediated IKZF2 degradation and subsequent modulation of therapeutically relevant downstream biology is not yet well understood.

T1 sequence (Q96SW2 whole entry partner): as the sequence (Q96SW2 whole entry) above
T1 sequence (Q16531 whole entry partner): as the sequence (Q16531 whole entry partner) above
T1 sequence (Q13422 whole entry): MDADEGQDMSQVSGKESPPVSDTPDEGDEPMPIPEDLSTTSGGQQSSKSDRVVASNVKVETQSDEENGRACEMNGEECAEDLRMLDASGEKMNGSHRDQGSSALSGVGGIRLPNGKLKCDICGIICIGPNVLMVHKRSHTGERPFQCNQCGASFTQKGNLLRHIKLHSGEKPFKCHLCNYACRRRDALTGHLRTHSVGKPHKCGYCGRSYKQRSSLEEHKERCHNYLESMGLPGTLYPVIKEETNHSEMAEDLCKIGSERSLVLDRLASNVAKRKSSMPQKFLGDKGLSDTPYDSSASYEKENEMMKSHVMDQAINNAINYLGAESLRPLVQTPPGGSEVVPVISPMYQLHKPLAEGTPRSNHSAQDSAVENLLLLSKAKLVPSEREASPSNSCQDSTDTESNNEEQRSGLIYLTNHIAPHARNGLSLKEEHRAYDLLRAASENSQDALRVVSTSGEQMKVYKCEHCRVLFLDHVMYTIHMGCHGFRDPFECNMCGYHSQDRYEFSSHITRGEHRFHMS

## O=C1CCC(N2Cc3cc(C4CCN(Cc5ccccc5)CC4)ccc3C2=O)C(=O)N1 (stereo not drawn) [Compound I-57, 3-(5-(1-benzylpiperidin-4-yl)-1-oxoisoindolin-2-yl)piperidine-2,6-dione]
IKZF1 (Ikaros)
  degradation of IKZF1: not degraded
[1]; single oral dose 0.01 mg/kg
  Cmax: 2.11 ± 0.69 ng/mL
  AUC(0-t): 14.1 ± 4.72 ng·h/mL
  AUC24 h/Dose: 1410 ± 472 (ng · h/mL)/(mg/kg)
  Cmax/Dose: 211 ± 69.1 (ng/mL)/(mg/kg)
[1]; single oral dose 0.1 mg/kg
  Cmax: 13.4 ± 2.77 ng/mL
  AUC(0-t): 102 ± 13.2 ng·h/mL
  AUC24 h/Dose: 1020 ± 136 (ng · h/mL)/(mg/kg)
  Cmax/Dose: 134 ± 27.7 (ng/mL)/(mg/kg)
[1]; single oral dose 1 mg/kg
  Cmax: 102 ± 45.3 ng/mL
  AUC(0-t): 610 ± 236 ng·h/mL
  AUC24 h/Dose: 610 ± 236 (ng · h/mL)/(mg/kg)
  Cmax/Dose: 102 ± 45.3 (ng/mL)/(mg/kg)
[1]; single oral dose 0.01, 0.1 or 1 mg/kg
  dose proportionality of exposure: slightly less than dose proportional
IKZF2 [2]; 0.1 mg/kg dose level, repeated daily
  IKZF2 degradation: profound
IKZF2 [2]; repeated daily oral doses
  time after initiation of treatment to steady-state level of IKZF2: approximately 72 h
IKZF2 [2]; repeated daily oral doses of 0.1 and 3 mg/kg
  time after the first dose at which IKZF2 degradation was detected: 24 h
[3]; between 3 mg/kg and 300 mg/kg
  dose proportionality of AUC: roughly dose proportional
[3]; blood, po
  bioavailability: 90%
Plasma protein [4]
  binding to plasma protein: 73%
Plasma protein [5]
  binding to plasma protein: 52%
CYP2C9
  inhibition of CYP2C9: very little and no inhibition
CYP1A2
  time-dependent inhibition of CYP1A2: no apparent time-dependent inhibition
CYP2B6
  time-dependent inhibition of CYP2B6: no apparent time-dependent inhibition
IKZF2 [6]; flow cytometry, unbound exposure (AUCinf) 7 ng*h/mL
  reduction of IKZF2 positivity in tumor Tregs: 31%
IKZF2 [6]; flow cytometry, unbound exposure (AUCinf) 30 ng*h/mL
  reduction of IKZF2 positivity in tumor Tregs: 43%
IKZF2 [6]; flow cytometry, unbound exposure (AUCinf) 157 ng*h/mL
  reduction of IKZF2 positivity in tumor Tregs: 56%
IKZF2 [6]; flow cytometry, unbound exposure (AUCinf) 3474 ng*h/mL
  reduction of IKZF2 positivity in tumor Tregs: 75%
IKZF2 [6]; post dose, hPBMC AdT model
  time of maximum effects on IKZF2 positive Tregs: 4 to 16 h
IKZF2 [6]; tumor and peripheral blood, after 14 daily doses, flow cytometry
  IKZF2 degradation (reduction of the percentage of IKZF2 positive Tregs): robust dose and exposure-dependent IKZF2 degradation
